The values below come from publication PMC8733953, “Identifying specific matrix metalloproteinase-2-inhibiting peptides through phage display-based subtractive screening” (Turkish Journal of Biology, 2021).

SMILES strings stand for the structures. “Also recorded” adds a separate entry of the source.

The subject of this assay is HUVEC. In words: Wound-healing (cell migration) assay. To be noted: peptide 100 μM or EDTA 2 mM, 24 h. It is filed as cell-based, human. On the procedure: For cell culture study, human umbilical vein endothelial cells (HUVECs; C2519A) were purchased from Lonza, Basel, Switzerland. The cells were cultured in endothelial complete media, which is composed of endothelial basal media EBM-2 (CC-3156, Lonza) supplemented with 1% penicillin (10,000 units/mL)- streptomycin (10,000 units/mL) (Gibco, Cat No 15140122) and endothelial cell growth medium 2 (EGM-2) SingleQuots (CC-4176, Lonza, Switzerland) containing growth factors (insulin-like growth factor, human fibroblast growth factor, human epidermal growth factor, and vascular endothelial growth factor), and supplements (ascorbic acid, heparin, hydrocortisone, and fetal bovine serum). Cell passage was carried out three times per week, considering the cell doubling time (Erdag et al., 2011). Cell migration was investigated using a wound-healing assay. HUVEC cells were detached from the cell culture flask using 0.25% trypsin-EDTA and harvested when cell confluence was approximately 70%–80%. After confirming that cell viability was at least 90%, the cells were suspended in complete medium to a density of 1 × 10^5 cells/mL. […] Wound areas were measured using the Gen5 software, and the relative wound area per time-point was calculated based on the wound at 0 h.

Regarding `O=C(O)CN(CCN(CC(=O)O)CC(=O)O)CC(=O)O` [EDTA], the “wound area still uncovered (wound opening area)” value (HUVEC monolayer scratched, relative to wound at 0 h, three independent experiments) is 82%. Further, for the setting “HUVEC”, the “effect on wound healing (in words)” value was “no significant wound healing was observed; also recorded: twice the inhibition effect”.
